According to patent publication US20180312237A1, “BALLAST WATER TREATMENT DEVICE AND BALLAST WATER TREATMENT METHOD” (Kuraray Co., Ltd., priority 2015, published 2018):

Legend:
heterotrophic bacteria = assay: Number of heterotrophic bacteria (seawater medium) in sampled ballast water; format: cell-based
Method: In the present example, using a ballast water treatment device 100 shown in FIG. 8, 100 m^3 of seawater was supplied to a ballast tank 60 with a capacity of about 200 m^3. Specifically, first, a ballast pump 10 was activated to take in seawater from a pipe port 2A of a main pipe 2 by pump pressure. Microbes or particles in the seawater were removed by allowing the seawater to pass through a filter 20.
(§1) Next, by pouring a solution of TRO 2000 mg/L with dissolved sodium dichloroisocyanurate from a sterilizing component-introducing unit 40 to the seawater after being filtered by the above filter, the seawater was made to include a chlorine component. […]
(§2) With respect to each of the above sampled three kinds of ballast water (the ballast water immediately after filling, the ballast water after a lapse of 10 days after filling, and the ballast water in the ballast tank after the ballast water circulation), a TRO concentration and the number of heterotrophic bacteria (seawater medium) were measured. Additionally, as a comparison, the number of heterotrophic bacteria of the seawater was measured. As the TRO concentration, a value measured by a DPD colorimeter II (product of Hach Company) was adopted.

[1] = TRO concentration of sampled ballast water, DPD colorimeter II; format: physicochemical
Method: The ballast water treatment device 1 further includes a concentration measurement unit 41. […] The concentration measurement unit 41 is a sensor for measuring a chlorine concentration of ballast water in the ballast tank 60. Here, a “chlorine concentration (mg/L)” is measured as a total residual oxidant (TRO) concentration of seawater. The TRO concentration can be measured by a measuring instrument using a DPD reagent or the like. […] While in the present embodiment, the concentration measurement unit 41 is attached to the ballast tank 60, the position of the concentration measurement unit 41 is not limited thereto but can be any position that enables a concentration of a sterilizing component of the ballast water in the ballast tank 60 to be measured. For example, the concentration measurement unit 41 may be attached to the circulation pipe 80, or the concentration measurement unit 41 may be attached to the detour pipe 90, or the concentration measurement unit 41 may be attached to the main pipe 2 between the first connection part 2C and the second connection part 2D.
as §1, with “component. By stirring the seawater including a chlorine component by a mixer 50, a chlorine component in the seawater was made uniform to become ballast water, and the ballast tank 60 was filled with the ballast water.” for “component.”
as §2

[2] = ballast water after a lapse of 10 days after filling

Q: What does the source list for `O=c1[n-]c(=O)n(Cl)c(=O)n1Cl.[Na+]` [sodium dichloroisocyanurate]?
A: The number of bacteria (heterotrophic bacteria; [2]): 4.6 × 10^5 cfu/cc; The number of bacteria (heterotrophic bacteria; ballast water immediately after filling, filtered seawater with poured TRO 2000 mg/L solution): 7.4 × 10^1 cfu/cc; TRO concentration [1, 2]: 0.2 mg/L; TRO concentration ([1]; ballast water after circulation with additional sterilizing component): 3.2 mg/L; TRO concentration ([1]; ballast water immediately after filling): 5.0 mg/L
